From the supplement of paper PMC8633005

Columns and labels:
Test in all cases: drug sensitivity score (DSS) (DSS (unitless, 0-50 scale)); higher = more sensitive (stronger viability inhibition); extreme values may be limits of the assay
Conditions in all cases: 72 h; culture: 2D
[1] = test system: WM852
In short: (§1)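 Patient-derived melanoma cultures and melanoma cell lines were grown in 2D in 384-well plates with a 527-compound oncology library at five concentrations spanning a 10,000-fold range, with 1000–1500 cells per well for the cultures. CellTiter-Glo luminescence gave viability after 72 h at 37 °C. The drug sensitivity score is a modified area-under-curve measure derived from dose-response curves fitted in the in-house Breeze software.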

[2] = test system: WM165
In short: as §1

[3] = test system: Bowes
In short: as §1

[4] = test system: SK-MEL-28
In short: as §1

[5] = test system: FM-MEL-3
In short: as §1

[6] = test system: SK-MEL-2
In short: as §1

[7] = test system: FM-MEL-6
In short: as §1

[8] = test system: FM-MEL-2
In short: as §1

| Compound | drug sensitivity score [1] | drug sensitivity score [2] | drug sensitivity score [3] | drug sensitivity score [4] | drug sensitivity score [5] | drug sensitivity score [6] | drug sensitivity score [7] | drug sensitivity score [8] |
| --- | --- | --- | --- | --- | --- | --- | --- | --- |
| Nc1nc(Cl)nc2c1ncn2[C@@H]1O[C@H](CO)[C@@H](O)[C@@H]1F [Clofarabine] | 8.6 | 16.6 | 10.9 | 10.8 | 11.8 | 7.6 | 9.6 | 2.4 |
| CCCCCOC(=O)Nc1nc(=O)n([C@@H]2O[C@H](C)[C@@H](O)[C@H]2O)cc1F [Capecitabine] | 0 | 0 | 0 | 0 | 0 | 0 | 0 | 0 |
| Nc1nc2cc(-c3ccc4ncc(C(=O)N5CCOCC5)n4c3)ccc2o1 [Serabelisib] | 0 | 0.1 | 0 | 0 | 0.3 | 0 | 0 | 0.5 |
| Nc1cc(F)ccc1NC(=O)c1ccc(CNC(=O)/C=C/c2cccnc2)cc1 [Tucidinostat] | 0 | 7.8 | 1.9 | 5.6 | 7.7 | 5 | 7.2 | 5.1 |
| CC(C)c1c(C(=O)Nc2ccccc2)c(-c2ccccc2)c(-c2ccc(F)cc2)n1CC[C@@H](O)C[C@@H](O)CC(=O)O [Atorvastatin] | 4.4 | 7.6 | 5.8 | 1 | 1.5 | 1.1 | 0 | 0 |
| C[C@H]1O[C@@H](O[C@H]2[C@@H](O)C[C@H](O[C@H]3[C@@H](O)C[C@H](O[C@H]4CC[C@@]5(C)[C@H](CC[C@@H]6[C@@H]5C[C@@H](O)[C@]5(C)[C@@H](C7=CC(=O)OC7)CC[C@]65O)C4)O[C@@H]3C)O[C@@H]2C)C[C@H](O)[C@@H]1O [Digoxin] | 10.4 | 10.6 | 12.9 | 6.6 | 13.3 | 5.9 | 9.7 | 3.3 |
| COc1cc([C@@H]2c3cc4c(cc3[C@@H](O[C@@H]3O[C@@H]5CO[C@@H](C)O[C@H]5[C@H](O)[C@H]3O)[C@H]3COC(=O)[C@H]23)OCO4)cc(OC)c1O [Etoposide] | 0.4 | 19.1 | 2.7 | 5.9 | 4 | 2.6 | 5.7 | 2.9 |
| O=C(O)C1(C(=O)O)CCC1.[NH2-].[NH2-].[Pt+2] [Carboplatin] | 0 | 10.2 | 0 | 3.2 | 2.8 | 2 | 7.8 | 0.9 |
| CO[C@H]1C[C@@H]2CC[C@@H](C)[C@@](O)(O2)C(=O)C(=O)N2CCCC[C@H]2C(=O)O[C@H]([C@H](C)C[C@@H]2CC[C@@H](OCCO)[C@H](OC)C2)CC(=O)[C@H](C)/C=C(\C)[C@@H](O)[C@@H](OC)C(=O)[C@H](C)C[C@H](C)/C=C/C=C/C=C/1C [Everolimus] | 0 | 4.9 | 0 | 3 | 4.7 | 0 | 3.6 | 2.2 |
| C[C@@H]1C[C@H]2[C@@H]3CCC4=CC(=O)C=C[C@]4(C)[C@@]3(F)[C@@H](O)C[C@]2(C)[C@@]1(O)C(=O)CO [Dexamethasone] | 0 | 0 | 0 | 0 | 0 | 0 | 0 | 0 |
| Cc1nc2cccc(N)c2c(=O)n1C1CCC(=O)NC1=O (stereo unspecified) [CC122] | 0 | 0 | 0 | 0 | 0.2 | 0 | 1.3 | 0 |
| CN(c1ncccc1CNc1nc(Nc2ccc3c(c2)CC(=O)N3)ncc1C(F)(F)F)S(C)(=O)=O | 5.3 | 9.1 | 6.4 | 4.7 | 7.1 | 0 | 5.2 | 3 |
| CC(O)c1cc(C(=O)N[C@@H](C)Cn2ccc(-c3ccc(C#N)c(Cl)c3)n2)n[nH]1 (stereo partly specified) [ODM-201] | 0.2 | 0 | 1.3 | 0 | 2.8 | 0 | 1.1 | 0 |
| O=C(/C=C/c1cccnc1)NCCCCC1CCN(C(=O)c2ccccc2)CC1 [Daporinad] | 27.1 | 17.5 | 32.7 | 16.8 | 14.5 | 11.3 | 10.3 | 16.6 |
| NC(=O)c1cccc2cn(-c3ccc([C@@H]4CCCNC4)cc3)nc12 [Niraparib] | 0 | 6.9 | 0 | 0 | 0 | 0 | 0 | 1.4 |
| CS(=O)(=O)c1ccc(C(=O)Nc2ccc(Cl)c(-c3ccccn3)c2)c(Cl)c1 [Vismodegib] | 0 | 0 | 0 | 0 | 0 | 0 | 0 | 0 |

| Compound | drug sensitivity score [1] | drug sensitivity score [2] | drug sensitivity score [3] | drug sensitivity score [4] | drug sensitivity score [5] | drug sensitivity score [6] | drug sensitivity score [7] | drug sensitivity score [8] |
| --- | --- | --- | --- | --- | --- | --- | --- | --- |
| COc1cc2/c(=N/c3ccc(Br)cc3F)nc[nH]c2cc1OCC1CCN(C)CC1 [Vandetanib] | 0 | 0 | 1.3 | 0.4 | 0 | 0 | 0.2 | 0 |
| Cc1cnc(NC(=O)Nc2cc(Br)c(C)cc2OC[C@@H]2CNCCO2)cn1 [Rabusertib] | 2.4 | 0 | 0.9 | 0 | 1.5 | 0 | 0 | 0 |
| Nc1nc(OCc2cc(Br)cs2)c2[nH]cnc2n1 [Lomeguatrib] | 0 | 0 | 0 | 0 | 0 | 0 | 0 | 0 |
| CCc1c(C(=O)C(N)=O)c2c(OCC(=O)O)cccc2n1Cc1ccccc1 [Varespladib] | 0 | 0 | 0 | 0 | 0 | 0 | 0 | 0 |
| CCCCOc1nc(N)c2c(n1)N(Cc1cccc(CN3CCCC3)c1)CC(=O)N2 [Vesatolimod] | 0 | 0 | 0 | 0 | 0 | 0 | 0.8 | 0 |
| COc1ccc(S(=O)(=O)Nc2cccnc2Nc2ccc(O)cc2)cc1 [ABT-751] | 8.9 | 10.3 | 11 | 5.7 | 5.7 | 9 | 9.2 | 4 |
| Cn1cc(C2=C(c3cn(C4CCN(Cc5ccccn5)CC4)c4ccccc34)C(=O)NC2=O)c2ccccc21 [Enzastaurin] | 2.1 | 0 | 0 | 0 | 3.7 | 0.2 | 0 | 1.7 |
| Nc1nc2[nH]cnc2c(=S)[nH]1 [Thioguanine] | 6.8 | 12.8 | 8.5 | 4.3 | 0 | 3.5 | 2.6 | 5.4 |
| CNC(=O)c1cc(Oc2ccc(NC(=O)Nc3ccc(Cl)c(C(F)(F)F)c3)c(F)c2)ccn1 [Regorafenib] | 1.8 | 5.3 | 6.7 | 4.6 | 12.9 | 2.8 | 3.7 | 8.5 |
| CCN(CC)Cc1ccc2cc(COC(=O)Nc3ccc(C(=O)NO)cc3)ccc2c1 [Givinostat] | 2.2 | 6.6 | 2 | 4.9 | 5.2 | 5.6 | 5.8 | 4.3 |
| CC(C)C[C@H](NC(=O)CNC(=O)c1cc(Cl)ccc1Cl)B(O)O [Ixazomib] | 0.9 | 10.4 | 8.8 | 9.6 | 13.6 | 11.2 | 17 | 4.9 |
| C=C1C[C@@H]2CC[C@@]34C[C@H]5O[C@H]6[C@@H](O3)[C@H]3O[C@H](CC[C@@H]3O[C@H]6[C@H]5O4)CC(=O)C[C@@H]3[C@@H](OC)[C@@H](C[C@H](O)CN)O[C@H]3C[C@H]3O[C@@H](CC[C@@H]1O2)C[C@@H](C)C3=C [Eribulin] | 22.8 | 22.5 | 23.6 | 11.2 | 9.4 | 20.4 | 18.5 | 4.8 |
| Nc1cc(C(F)(F)F)c(-c2cc(N3CCOCC3)nc(N3CCOCC3)n2)cn1 [Buparlisib] | 6 | 6.6 | 5.1 | 6.5 | 6.7 | 3.3 | 6 | 6.5 |
| CC(C)N(C[C@H]1O[C@@H](n2cnc3c(N)ncnc32)[C@H](O)[C@@H]1O)[C@H]1C[C@@H](CCc2nc3cc(C(C)(C)C)ccc3[nH]2)C1 [Pinometostat] | 0 | 0 | 0 | 0 | 0 | 0 | 0 | 0 |
| CCS(=O)(=O)N1CC(CC#N)(n2cc(-c3ncnc4[nH]ccc34)cn2)C1 [Baricitinib] | 0 | 0 | 0 | 0 | 0 | 0 | 0 | 0 |
| CC(O)(CS(=O)(=O)c1ccc(F)cc1)C(=O)Nc1ccc(C#N)c(C(F)(F)F)c1 (stereo unspecified) [Bicalutamide] | 0.8 | 0 | 0 | 0.1 | 1.7 | 0 | 0 | 0 |
